These results are taken from patent US20230104936A1, “TRPML MODULATORS” (Casma Therapeutics, Inc., priority 2019, published 2023).

This experiment deals with TFEB. As to the kind of experiment: TFEB nuclear translocation assay, HeLa wt cells. Type of experiment: cell-based. The conditions noted are these: 2 hrs compound treatment, Table 1 does not say HeLa wt or TRPML1 KO. The method in brief:
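Cells are plated overnight, exposed to compounds for 2 hrs at 37° C, fixed with 4% PFA, blocked, and stained overnight at 4° C with rabbit anti-TFEB. After Alexa 488 secondary and Hoechst, nuclei and a perinuclear ring are segmented to give a nuclear:ring intensity ratio and AC50.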

As a reminder, the AC50 is the concentration giving half of the maximal activity seen. The molecule `Cc1ccc(S(=O)(=O)Nc2ccccc2N2[C@@H]3CC[C@H]2C[C@@H](c2ccccc2F)C3)cc1` [Compound A-120, N-{2-[(1R,3R,5S)-3-(2-fluorophenyl)-8-azabicyclo[3.2.1]octan-8-yl]phenyl}-4-methylbenzene-1-sulfonamide] yielded an AC50 (Homo sapiens, HeLa, 2 h) of at most 2 µM.
With `C[C@@H]1CN(CC2CCN(c3c(F)cccc3NS(=O)(=O)c3ccc(S(C)(=N)=O)cc3)CC2)C[C@H](C)O1` (single isomer, unassigned) [Compound A-846], the AC50 is 2.01 to 8 µM.
As to `O=S(=O)(Nc1ccccc1N1CCC(c2ccc(Cl)cc2F)CC1)c1ccccc1` [Compound A-42, N-{2-[4-(4-chloro-2-fluorophenyl)piperidin-1-yl]phenyl}benzenesulfonamide], for the setting “Homo sapiens, HeLa, 2 h”, the AC50 was at least 10 µM.
The molecule `CN1CCC2(CCN(c3ccccc3NS(=O)(=O)c3ccc(S(=O)(=O)N(C)C)cc3)CC2)C1=O` [Compound A-244, N1,N1-dimethyl-N4-(2-{2-methyl-1-oxo-2,8-diazaspiro[4.5]decan-8-yl}phenyl)benzene-1,4-disulfonamide] had an AC50 (Homo sapiens, HeLa, 2 h) of at least 10 µM.
The same measure, in the same setting: for `O=S(=O)(CC1CCC2(CCCC2)O1)Nc1cccc(Cl)c1N1CCOCC1` (centres unmarked) [Compound A-393, N-[3-chloro-2-(morpholin-4-yl)phenyl]-1-{1-oxaspiro[4.4]nonan-2-yl}methanesulfonamide] the value was 8.01 to 9.99 µM; for `CN(C)S(=O)(=O)c1ccc(S(=O)(=O)Nc2cccc(C#N)c2N2CCC3(CC2)COC(C)(C)C3)cc1` [Compound A-724, N4-(3-cyano-2-{3,3-dimethyl-2-oxa-8-azaspiro[4.5]decan-8-yl}phenyl)-N1,N1-dimethylbenzene-1,4-disulfonamide], at most 2 µM; for `COCC1(C)CCN(c2ccccc2NS(=O)(=O)c2ccc(S(C)(=O)=O)c(F)c2)CC1` [Compound A-731, 3-fluoro-4-methanesulfonyl-N-{2-[4-(methoxymethyl)-4-methylpiperidin-1-yl]phenyl}benzene-1-sulfonamide], at least 10 µM.
On to `Cc1ccc(S(=O)(=O)Nc2ccccc2N2[C@@H]3CC[C@H]2C[C@H](c2ccccc2F)C3)cc1` [Compound A-119, N-{2-[(1R,3S,5S)-3-(2-fluorophenyl)-8-azabicyclo[3.2.1]octan-8-yl]phenyl}-4-methylbenzene-1-sulfonamide], for which, under “Homo sapiens, HeLa, 2 h”, the AC50 is at most 2 µM.
Take `CC1(C)CC2(CCN(c3ccccc3NS(=O)(=O)c3ccc(C4CC4(F)F)cc3)CC2)CO1` (centres unmarked) [Compound A-718, 4-(2,2-difluorocyclopropyl)-N-(2-{3,3-dimethyl-2-oxa-8-azaspiro[4.5]decan-8-yl}phenyl)benzene-1-sulfonamide]: the AC50 (Homo sapiens, HeLa, 2 h) was at most 2 µM.
`CS(=N)(=O)c1ccc(S(=O)(=O)Nc2ccccc2N2CCC(O)(c3ccc(Cl)cc3F)CC2)cc1` (centres unmarked) [Compound A-152, N-{2-[4-(4-chloro-2-fluorophenyl)-4-hydroxypiperidin-1-yl]phenyl}-4-[iimino(methyl)oxo-λ^6-sulfanyl]benzene-1-sulfonamide] returned an AC50 (Homo sapiens, HeLa, 2 h) of at least 10 µM.
Still for that read-out and setting: the result for `CS(=N)(=O)c1ccc(S(=O)(=O)Nc2ccccc2N2CCC(c3c(F)cccc3F)CC2)cc1` (centres unmarked) [Compound A-166, N-{2-[4-(2,6-difluorophenyl)piperidin-1-yl]phenyl}-4-[imino(methyl)oxo-λ^6-sulfanyl]benzene-1-sulfonamide] reads 2.01 to 8 µM.
On the same count and under the same terms, the result for `CC(C)(C)C(=O)N1CCN(c2ccccc2NS(=O)(=O)Cc2ccc3ccccc3c2)CC1` [Compound A-566, N-{2-[4-(2,2-dimethylpropanoyl)piperazin-1-yl]phenyl}-1-(naphthalen-2-yl)methanesulfonamide] reads 2.01 to 8 µM.
On the same count and under the same terms, for `CN(C)S(=O)(=O)c1ccc(S(=O)(=O)Cc2ccccc2N2CCC(c3ccc(Cl)cc3F)CC2)cc1` [Compound A-214, 4-((2-(4-(4-chloro-2-fluorophenyl)piperidin-1-yl)benzyl)sulfonyl)-N,N-dimethylbenzenesulfonamide] the value was at most 2 µM.
Take `C[C@@H](c1cccc(F)c1N1CCC(C(F)(F)F)CC1)S(=O)(=O)c1ccc(S(=N)(=O)N(C)C)cc1` (single isomer, unassigned) [Compound A-935]: the AC50 was at most 2 µM.
